Assay results as given in ChEMBL document CHEMBL1201862, “PubChem BioAssay data set” (2004).
The source made the active and inactive calls.

How the values were obtained:
[1] = target: T1, Bcl-2-related protein A1 (Mus musculus, UniProt Q07440); format: functional;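 note: confirmatory dose–response counterscreen on Bfl-1, used to check hits from a UBC13 polyubiquitin inhibitor campaign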
T1 sequence (Q07440 whole entry): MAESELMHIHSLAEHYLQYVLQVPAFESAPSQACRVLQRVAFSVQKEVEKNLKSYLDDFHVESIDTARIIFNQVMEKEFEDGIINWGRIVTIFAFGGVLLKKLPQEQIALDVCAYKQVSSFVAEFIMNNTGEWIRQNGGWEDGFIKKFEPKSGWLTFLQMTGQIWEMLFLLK

[2] = HEK-293T cell viability reduction – luminescence, B-cell screen hits, cytotoxicity control for BCR NF-kB inhibitor project, dose response (AID 489021); format: functional, cell-based;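 note: HEK-293T cells carrying an NF-kB luciferase reporter; cells exposed to compound for about 14 hours before viability readout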
[3] = HIV-1 AD8 envelope cell-cell fusion blockers – cherry-pick, dose response (AID 652062); format: functional, cell-based;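 note: luciferase signal from cell-cell fusion driven by HIV-1 clade B AD8 Env; potency is for inhibitors of fusion seen as a drop in luminescence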
[4] = blockers of HIV-1 envelope-mediated cell-cell fusion – cherry-pick, dose response (AID 652057); format: functional, cell-based
[5] = blockers of HIV-1 ZM109 envelope-driven cell-cell fusion – HeLa effector, CEM target cells, luciferase, cherry-pick, dose response (AID 652058); format: functional, cell-based;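 note: luciferase signal from HIV-1 Env mediated cell-cell fusion of effector and target cells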
[6] = target: Prothrombin (Homo sapiens, UniProt P00734); experiment: Thrombin 1536 HTS Dose Response Confirmation. [Related pubchem assays: 1046 (Thrombin 1536 HTS; hits were confirmed in this assay)]; format: functional
[7] = viability of PTEN-deleted HCT116 cells – cell-based, HCT116 PTEN knockout, dose response (AID 1047); format: functional;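 note: HCT116 colon tumor cells with PTEN knocked out; cells exposed to compound for 60 hours before readout; potency for loss of cell viability measured by luminescence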
[8] = fluconazole-exposed Candida albicans growth modulators – fluorescence, retest, confirmation (AID 2467); format: functional, cell-based
[9] = viability of HCT116 lacking mutant beta-catenin – cell-based, human colon tumor, dose response (AID 1045); format: functional;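 note: HCT116 colon tumor cells with beta catenin knocked out; cells exposed to compound for 60 hours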
[10] = NIH3T3 cell viability loss – ATP luminescence, mouse fibroblasts, counter-screen, dose response (AID 2010); format: functional, cell-based;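 note: cells exposed to compound for about 90 hours before reading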
[11] = Trypanosoma cruzi growth suppression in host cells – NIH3T3 host cells, beta-gal luminescence, confirmation (AID 2044); format: functional, cell-based;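 note: intracellular parasites grown in NIH/3T3 mouse fibroblasts as host cells; luminescent beta-galactosidase reporter signal from transgenic T. cruzi replicating inside host cells; inhibitors lower the luminescence signal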
[12] = NIH-3T3 fibroblast cytotoxicity, dose response, cytotoxicity control, cell-based, fluorescence, Alamar Blue, secondary assay (AID 2327); format: functional;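 note: NIH-3T3 mouse fibroblasts cultured with fluconazole at 8 µg/mL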
[13] = system: Vero; experiment: cells; format: functional; conditions: Chlorocebus sabaeus
[14] = A Cell Based Secondary Assay To Explore Cytotoxicity of Compounds that Sensitize Mycobacterium Tuberculosis to Beta-Lactam Antibiotics.; format: functional
[15] = Luminescence-based cell-based high throughput dose response assay to identify activators of the DAF-12 from the parasite S. stercoralis (ssDAF-12).; format: functional
[16] = microbe, parasite or virus in culture; format: functional; conditions: Mycobacterium tuberculosis
[17] = target: Induced myeloid leukemia cell differentiation protein Mcl-1 (Homo sapiens, UniProt Q07820); format: functional
Chain of Induced myeloid leukemia cell differentiation protein Mcl-1 (Q07820 whole entry): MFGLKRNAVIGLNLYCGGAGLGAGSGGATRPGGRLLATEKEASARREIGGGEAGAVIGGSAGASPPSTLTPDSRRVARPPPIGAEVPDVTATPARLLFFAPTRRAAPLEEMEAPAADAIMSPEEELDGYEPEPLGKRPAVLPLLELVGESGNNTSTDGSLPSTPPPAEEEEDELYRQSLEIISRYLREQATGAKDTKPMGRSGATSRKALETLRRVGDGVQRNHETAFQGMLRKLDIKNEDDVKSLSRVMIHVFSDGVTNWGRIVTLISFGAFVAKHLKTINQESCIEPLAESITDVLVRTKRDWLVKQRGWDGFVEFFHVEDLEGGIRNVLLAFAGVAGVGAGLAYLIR

[18] = system: HEK293; experiment: EBV LMP1 TES2 canonical NF-kB signalling blockers – cell-based, HEK293, luciferase, cherry-pick, dose response (AID 588343); format: functional; conditions: Homo sapiens
[19] = cells; format: functional, cell-based
[20] = HEK-293T viability loss after treatment – luminescence, T-cell screen hits, cytotoxicity control for TCR NF-kB inhibitor project, dose response (AID 489026); format: functional, cell-based;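 note: cells exposed to compound about 14 hours before the viability readout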
[21] = target: T2, Microphthalmia-associated transcription factor (Homo sapiens, UniProt O75030); experiment: reducers of TRPM1 reporter luminescence, concentration series – cell-based, SK-MEL-5, cherry-picked, set 3, MITF inhibitor project, dose response (AID 493073); format: functional;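 note: SK-MEL-5 melanoma cells with luciferase driven by the MITF target TRPM1 promoter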
T2 sequence (O75030 whole entry): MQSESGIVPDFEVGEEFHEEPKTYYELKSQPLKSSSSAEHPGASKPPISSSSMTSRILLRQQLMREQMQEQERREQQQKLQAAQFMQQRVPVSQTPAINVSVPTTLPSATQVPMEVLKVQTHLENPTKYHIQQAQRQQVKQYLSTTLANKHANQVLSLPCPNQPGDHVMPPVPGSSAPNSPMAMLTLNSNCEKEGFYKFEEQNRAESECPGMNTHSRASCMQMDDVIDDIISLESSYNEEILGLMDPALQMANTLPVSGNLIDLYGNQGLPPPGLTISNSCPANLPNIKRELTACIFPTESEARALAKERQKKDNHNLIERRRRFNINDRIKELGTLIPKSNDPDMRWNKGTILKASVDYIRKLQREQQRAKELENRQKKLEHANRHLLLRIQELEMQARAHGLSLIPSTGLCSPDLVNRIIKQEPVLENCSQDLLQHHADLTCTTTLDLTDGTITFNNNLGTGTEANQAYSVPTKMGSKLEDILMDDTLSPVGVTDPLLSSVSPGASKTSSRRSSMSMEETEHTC

[22] = cells; format: functional, cell-based; remark: listed apart in the source
[23] = target: Glucose-6-phosphate 1-dehydrogenase (Homo sapiens, UniProt P11413); experiment: inhibition of Homo sapiens G6PD, dose series – biochemical, fluorescence, selectivity assay for P. falciparum G6PD inhibitor project, dose response (AID 504792); format: functional
Chain of Glucose-6-phosphate 1-dehydrogenase (P11413 whole entry): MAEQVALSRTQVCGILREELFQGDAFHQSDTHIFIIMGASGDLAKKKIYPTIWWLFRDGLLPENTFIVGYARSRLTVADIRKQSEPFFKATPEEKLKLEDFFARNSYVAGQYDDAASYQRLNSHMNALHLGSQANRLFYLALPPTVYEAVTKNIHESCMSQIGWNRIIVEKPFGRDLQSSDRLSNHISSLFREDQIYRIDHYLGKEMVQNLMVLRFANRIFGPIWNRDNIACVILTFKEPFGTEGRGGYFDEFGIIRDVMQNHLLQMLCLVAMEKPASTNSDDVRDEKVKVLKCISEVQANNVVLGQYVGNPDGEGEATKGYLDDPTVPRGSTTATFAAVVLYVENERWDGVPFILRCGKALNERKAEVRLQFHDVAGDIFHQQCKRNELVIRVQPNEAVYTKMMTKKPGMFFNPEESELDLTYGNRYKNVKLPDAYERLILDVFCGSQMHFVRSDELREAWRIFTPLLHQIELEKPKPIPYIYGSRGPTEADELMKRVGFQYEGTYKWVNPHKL

[24] = intracellular Trypanosoma cruzi inhibitors in host cells – cell-based, plate reader, cherry-pick samples, set 3, dose response (AID 651818); format: functional;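 note: compounds incubated with infected cells for about four days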
[25] = target: Paired box protein Pax-8 (Homo sapiens, UniProt Q06710); experiment: PAX8 transcriptional activity inhibition in RMG-I – RMG-I cells, luciferase, cherry-pick, dose response (AID 687027); format: functional, cell-based;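 note: luciferase reporter driven by Pax8 target thyroperoxidase promoter measured by SteadyGlo luminescence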
Chain of Paired box protein Pax-8 (Q06710 whole entry): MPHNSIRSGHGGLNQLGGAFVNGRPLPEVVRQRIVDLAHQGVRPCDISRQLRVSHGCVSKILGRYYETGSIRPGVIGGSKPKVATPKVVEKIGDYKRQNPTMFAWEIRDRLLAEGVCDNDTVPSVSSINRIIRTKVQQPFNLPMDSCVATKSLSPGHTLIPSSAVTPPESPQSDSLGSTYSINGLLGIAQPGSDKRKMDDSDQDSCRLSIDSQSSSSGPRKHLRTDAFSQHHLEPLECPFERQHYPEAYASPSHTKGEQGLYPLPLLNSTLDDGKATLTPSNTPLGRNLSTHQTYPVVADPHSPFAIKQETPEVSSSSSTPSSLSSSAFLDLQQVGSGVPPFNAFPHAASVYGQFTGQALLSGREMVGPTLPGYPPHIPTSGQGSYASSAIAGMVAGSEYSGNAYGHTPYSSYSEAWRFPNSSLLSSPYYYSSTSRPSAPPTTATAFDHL

[26] = general cell-killing toxicity readout – plate reader, dry powder samples, cytotoxicity control for PAX8 inhibitor project, dose response (AID 743021); format: functional, cell-based
[27] = reduction of Shn3 3'UTR-driven luciferase in osteoblasts – cell-based, Clone20 osteoblasts, firefly luciferase, cherry-picked, dose response (AID 624132); format: functional;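 note: firefly luciferase luminescence from reporter carrying the Shn3 3'UTR in osteoblasts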
[28] = system: HEK293; experiment: cells; format: functional, cell-based; conditions: Homo sapiens
[29] = target: Nucleotide-binding oligomerization domain-containing protein 2 (Homo sapiens, UniProt Q9HC29); experiment: inhibition of NOD2-driven NF-kB reporter – cell-based, luminescence, uHTS, HEK293 (AID 1566); format: functional
Chain of Nucleotide-binding oligomerization domain-containing protein 2 (Q9HC29 whole entry, the tested form may be a part): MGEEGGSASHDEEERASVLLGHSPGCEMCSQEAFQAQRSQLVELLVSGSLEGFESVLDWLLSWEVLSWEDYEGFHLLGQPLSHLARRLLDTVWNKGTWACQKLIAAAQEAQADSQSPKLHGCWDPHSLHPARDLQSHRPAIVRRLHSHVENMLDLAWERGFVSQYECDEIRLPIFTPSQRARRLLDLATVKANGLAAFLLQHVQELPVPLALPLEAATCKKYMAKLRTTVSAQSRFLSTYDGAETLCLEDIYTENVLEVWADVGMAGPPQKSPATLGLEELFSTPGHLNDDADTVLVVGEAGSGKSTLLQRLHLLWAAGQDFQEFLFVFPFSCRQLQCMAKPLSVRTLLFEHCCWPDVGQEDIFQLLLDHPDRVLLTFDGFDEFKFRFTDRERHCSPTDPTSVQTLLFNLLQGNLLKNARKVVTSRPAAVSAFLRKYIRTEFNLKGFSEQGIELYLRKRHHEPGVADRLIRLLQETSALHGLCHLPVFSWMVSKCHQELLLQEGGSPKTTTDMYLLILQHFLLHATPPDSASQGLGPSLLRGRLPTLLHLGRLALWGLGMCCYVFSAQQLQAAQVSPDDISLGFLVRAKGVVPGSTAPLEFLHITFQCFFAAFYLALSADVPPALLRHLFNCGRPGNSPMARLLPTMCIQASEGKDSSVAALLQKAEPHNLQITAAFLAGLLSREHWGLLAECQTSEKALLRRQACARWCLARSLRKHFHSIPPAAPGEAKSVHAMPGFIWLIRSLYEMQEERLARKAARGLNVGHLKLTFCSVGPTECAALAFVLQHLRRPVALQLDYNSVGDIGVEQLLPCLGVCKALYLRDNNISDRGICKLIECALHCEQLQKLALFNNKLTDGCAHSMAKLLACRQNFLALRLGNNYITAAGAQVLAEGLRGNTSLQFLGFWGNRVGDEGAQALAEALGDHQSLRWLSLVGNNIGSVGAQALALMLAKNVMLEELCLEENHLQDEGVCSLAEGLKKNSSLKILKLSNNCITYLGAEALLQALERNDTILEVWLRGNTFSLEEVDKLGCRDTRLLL

[30] = system: HEK293; experiment: cells; format: functional, cell-based; conditions: Homo sapiens; remark: listed apart in the source
[31] = system: HEK293; experiment: cells; format: functional, cell-based; conditions: Homo sapiens; remark: listed apart in the source
[32] = non-specific 3'UTR reporter inhibition in Clone20-Shn3RL – cell-based, Renilla luciferase, cherry-picked, counter-screen for Shn3 inhibitor project, dose response (AID 624133); format: functional
[33] = system: HEK293; experiment: inhibition of NOD1-driven NF-kB reporter – cell-based, luminescence, uHTS, primary screen (AID 1578); format: functional; conditions: Homo sapiens
[34] = system: HEK293; experiment: NOD2 signaling inhibitors in MDP-stimulated cells, cell-based, uHTS, luminescence (AID 2001); format: functional; conditions: Homo sapiens
[35] = activation of miR-122 Renilla sensor silencing – cell-based, Huh7 psiCHECK-miR122, Renilla luciferase, cherry-picked, dose response (AID 651956); format: functional;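 note: huh7 hepatoma cells stably carrying a psiCHECK-2 miR-122 sensor plasmid; renilla luciferase signal reporting endogenous miR-122 activity after 48 h compound exposure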
[36] = general mammalian cell viability loss – inhibitor set, cherry-pick, set 2, cytotoxicity control for miR-122 modulator project, dose response (AID 720697); format: functional, cell-based
[37] = target: Cytochrome P450 2C19 (Homo sapiens, UniProt P33261); experiment: Cytochrome panel assay with activity outcomes. Panel member name: p450-cyp2c19 Compounds with AC50 equal or less than 10 uM are considered active; format: functional; conditions: read-out: AC50
Chain of Cytochrome P450 2C19 (P33261 whole entry): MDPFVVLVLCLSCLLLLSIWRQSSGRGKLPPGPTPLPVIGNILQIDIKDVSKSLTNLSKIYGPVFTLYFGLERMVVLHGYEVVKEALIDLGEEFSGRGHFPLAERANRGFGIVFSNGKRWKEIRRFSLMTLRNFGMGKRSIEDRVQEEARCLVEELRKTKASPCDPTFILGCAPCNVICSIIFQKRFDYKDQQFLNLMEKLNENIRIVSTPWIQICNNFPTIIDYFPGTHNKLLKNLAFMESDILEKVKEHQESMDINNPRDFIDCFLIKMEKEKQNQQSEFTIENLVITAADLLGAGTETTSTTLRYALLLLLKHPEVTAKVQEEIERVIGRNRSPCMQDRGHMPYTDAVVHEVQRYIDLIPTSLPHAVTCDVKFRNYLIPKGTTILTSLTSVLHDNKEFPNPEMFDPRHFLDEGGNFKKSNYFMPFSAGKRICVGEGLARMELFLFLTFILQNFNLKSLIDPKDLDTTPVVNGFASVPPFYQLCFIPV

## COc1cc2c3c(c1)c(/N=N/C(=N)S)c(O)n3C(C)(C)C=C2C
[1]
  IC50: > 20 µM (inactive)
[2]
  IC50: > 80 µM (inactive)

## CC(C)NC(=O)Nc1ccc2c(c1)CC(=O)N([C@H](C)CO)C[C@H](C)[C@H](CN(C)S(=O)(=O)c1cccs1)O2
[3]
  AC50: 12.8 µM (active)
[4]
  AC50: 7.82 µM (active)
[5]
  AC50: 4.72 µM (active)

## COc1cc(S(=O)(=O)N2CCOCC2)ccc1NC(=O)COC(=O)COc1ccccc1
[6]
  IC50: 3.63 µM (active)

## Oc1ccc(CN2CCCCC2)c2cccnc12
[7]
  EC50: 3.45 µM (active)
[8]
  EC50: > 38 µM (not active)
[9]
  EC50: 3 µM (active)
[10]
  EC50: 11.4 µM (active)
[11]
  EC50: 1.78 µM (active)
[12]
  EC50: > 150 µM (inactive)

## COc1cccc(-n2c(SCC(=O)c3c[nH]c4ccccc34)nc3ccccc3c2=O)c1
[13]
  CC50: > 25 µM (active)

## O=C(N/N=C/c1ccc(-c2cccc(C(F)(F)F)c2)o1)c1ccccc1O
[14]
  CC50: 11.5 µM (active)

## CC(=O)Nc1nc(-c2ccc(Cl)cc2)nc(C)c1C(C)=O
[15]
  IC50: > 67.6 µM (inactive)

## Nc1c2c(nc3ccn(Cc4ccccc4)c(=O)c13)CCC2
[16]
  CC50: > 40 µM (active)

## Cc1cc(S)nc(-c2ccccn2)n1
[14]
  CC50: 31.8 µM (active)

## CC(C)(C)c1ccc(CN2N=Nc3ccccc3S2(=O)=O)cc1
[17]
  IC50: 24.1 µM (active)

## COc1cccc(/C=N/Nc2ncnc3c2ncn3Cc2ccccc2)c1O
[18]
  AC50: 4.68 µM (active)
[19]
  EC50: 6.75 µM (active)
[20]
  IC50: > 80 µM (inactive)
[21]
  AC50: 4.6 µM (active)
[22]
  EC50: > 350 µM (not active)

## O=c1oc(-c2cccnc2)nc2ccccc12
[6]
  IC50: 0.966 µM (active)

## COc1ccc(/C=C2\SC(=S)N(CCC(=O)N3CCCCC3)C2=O)cc1
[13]
  CC50: > 25 µM (active)

## COC(=O)C[C@@H]1C[C@H]2c3cc(NS(=O)(=O)c4cccc(OC)c4)ccc3O[C@H]2[C@@H](CO)O1
[3]
  AC50: 66.1 µM (active)
[5]
  AC50: 3.74 µM (active)

## CC1(C)CC(=O)C2=C(C1)N1C(=C(C#N)C2c2ccccc2Cl)N=C(N)c2ccccc21 (stereo unspecified)
[7]
  EC50: 20.4 µM (active)
[9]
  EC50: 22.7 µM (active)

## O=C(CSc1nc2ccccc2[nH]1)NC1CCCc2ccccc21 (stereo unspecified)
[23]
  IC50: > 80 µM (inactive)

## O=C(O)c1ccc(N/N=C/C=C/c2ccccc2[N+](=O)[O-])cc1
[15]
  IC50: > 67.6 µM (inactive)

## O=C(CSc1nc2cc(Cl)c[nH]c-2n1)Nc1cccc(F)c1
[14]
  CC50: > 40 µM (active)

## C[C@H](CO)N1C[C@H](C)[C@H](CN(C)C)Oc2c(NC(=O)Nc3ccc(C(F)(F)F)cc3)cccc2C1=O
[24]
  AC50: 3.27 µM (active)

## CSc1nc(-c2ccccc2)nc(N2CCOCC2)c1C(C)=O
[6]
  IC50: > 50 µM (not active)

## C[C@@H]1CN([C@@H](C)CO)C(=O)Cc2cc(NS(=O)(=O)c3cccs3)ccc2O[C@@H]1CN(C)Cc1ccc(C(=O)Nc2ccccc2N)cc1
[24]
  AC50: 2.33 µM (active)

## Cc1ccc2c(CC(=O)OCC(=O)Nc3ccc(Cl)cn3)coc2c1
[25]
  AC50: 14.2 µM (active)
[26]
  AC50: 52.7 µM (active)

## O=C(NCCN1CCN(Cc2ccccc2)CC1)c1cc2c(O)nc3ccccc3c2s1
[7]
  EC50: 13 µM (active)
[9]
  EC50: 14.3 µM (active)

## O=C(c1ccc(S(=O)(=O)c2ccc(F)cc2)c([N+](=O)[O-])c1)N1CCCCCC1
[27]
  AC50: 2.38 µM (active)
[28]
  IC50: > 20 µM (inactive)
[29]
  EC50: 14.8 µM (active)
[30]
  IC50: 5.7 µM (active)
[31]
  IC50: > 20 µM (inactive)
[32]
  AC50: 9.68 µM (active)
[33]
  EC50: 4.38 µM (active)
[34]
  IC50: 5.8 µM (active)

## CCC(C)Oc1ccccc1C1CC(=O)NC2=C1C(=O)CCC2 (stereo unspecified)
[7]
  EC50: 12.5 µM (active)
[9]
  EC50: 12.7 µM (active)

## CC1CCN(CC(=O)Nc2ccccc2C#N)CC1
[6]
  IC50: > 50 µM (not active)

## COC(=O)c1sccc1NC(=O)CSc1ccccc1NS(=O)(=O)c1cc(Cl)ccc1Cl
[28]
  IC50: > 20 µM (inactive)
[29]
  EC50: 6.35 µM (active)
[30]
  IC50: 8.22 µM (active)
[31]
  IC50: > 20 µM (inactive)
[33]
  EC50: 6.42 µM (active)
[34]
  IC50: 5.68 µM (active)

## Cc1ccc(CSc2nccc(-c3c(C)nc4ccccn34)n2)cc1
[14]
  CC50: 24.7 µM (active)

## Cc1cc(F)ccc1N1CCC(N2CCN(CCC(C)C)C(CCO)C2)CC1 (stereo unspecified)
[6]
  IC50: > 50 µM (not active)

## COC/C=C/C1=CC2=CC(=O)C(C)(OC(=O)c3ccco3)C(=O)C2=CO1 (stereo unspecified)
[17]
  IC50: 3.7 µM (active)

## Cc1ccc(CNc2nc3ccccc3n2C)cc1
[15]
  IC50: > 67.5 µM (inactive)

## C[C@H]1CN([C@@H](C)CO)C(=O)c2cc(NS(=O)(=O)c3ccc(Cl)cc3)ccc2O[C@H]1CN(C)S(=O)(=O)c1ccc(Cl)cc1
[24]
  AC50: 4.63 µM (active)

## C/C=C/c1ccc2c(c1)O[C@H](CN(C)C(=O)c1cnccn1)[C@H](C)CN([C@@H](C)CO)S2(=O)=O
[35]
  AC50: 26.6 µM (active)
[36]
  AC50: 10.3 µM (active)

## CC(CC(=O)Nc1ccc(Cl)c([N+](=O)[O-])c1)c1ccccc1 (stereo unspecified)
[16]
  CC50: 30.7 µM (active)
[37]
  AC50: 2.51 µM (inconclusive)

## C[C@@H]1CCCCO[C@@H](CN(C)C(=O)C2CCCCC2)[C@@H](C)CN([C@H](C)CO)C(=O)c2cc(NC(=O)Nc3ccc(C(F)(F)F)cc3)ccc2O1
[24]
  AC50: 1.91 µM (active)
